Reference: patent US20110038921A1, “METHODS AND COMPOSITIONS FOR TEMPORAL RELEASE OF AGENTS FROM A BIODEGRADABLE SCAFFOLD” (Clemson University Research Foundation, priority 2009, published 2011)

Experiments:
[1] = tested on: MMP expression; details: macrophages, fibroblasts, endothelial cells, epithelial cells; cited from earlier work
[2] = tested on: AP-1; experiment: AP-1 DNA-binding activity, electrophoretic mobility shift assay on nuclear proteins of U937 macrophages; type: cell-based, human; details: 10 μM PD98059, 100 ng/ml LPS, 24 h
Protocol: (§1) FIGS. 2A-D. A. E. coli and A. actinomycetemcomitans LPS activate MAPK pathways in macrophages. RAW 264.7 cells were stimulated for 15 min with LPS and whole cell lysates were used for Western blot analysis. […] B. A. actinomycetemcomitans LPS stimulation of IL-6 requires p38 MAPK signaling. Wild-type and p38 MAPK deficient cells were stimulated with A. actinomycetemcomitans LPS for 24 hrs (white bars). Cells were rescued with pcDNA containing p38a cDNA (p38α) in p38^−/− cells but the dominant negative mutant (p38AF) was not able to restore LPS-induced IL-6 expression. C. […] U937 macrophages were treated with 100 ng/ml of LPS in the presence or absence of 10 μM of PD98059 for 24 h. After the treatment, MMP-1 in culture medium was quantified by ELISA. D. Nuclear proteins were extracted from cells for electrophoretic mobility shift assay to determine AP-1 DNA-binding activity.

[3] = tested on: MMP-1; details: rabbit model of osteoarthritis; cited from earlier work
[4] = Isoelectric point / hydrophobicity; type: physicochemical
[5] = tested on: IL-6; experiment: U937 macrophages exposed to inhibitor-embedded scaffold with LPS, IL-6 ELISA; type: cell-based, human; details: inhibitor released from PLGA-collagen scaffold; LPS 100 ng/ml; 24 hrs
Protocol: (§2) FIGS. 9A-B. Human U937 macrophages were exposed to control scaffold, PD98059-embedded scaffold, or SB203580-embedded scaffold in the presence or absence of LPS (100 ng/ml) for 24 hrs. After the exposure, culture medium was collected for ELISA to quantify IL-6 (A) or MMP-1 (B).

[6] = tested on: MMP-1; experiment: LPS-stimulated MMP-1 expression in U937 macrophages, ELISA of culture medium; type: cell-based, human; details: 10 μM PD98059, 100 ng/ml LPS, 24 h
Protocol: as §1

[7] = tested on: MMP-1; experiment: U937 macrophages exposed to inhibitor-embedded scaffold with LPS, MMP-1 ELISA; type: cell-based, human; details: inhibitor released from PLGA-collagen scaffold; LPS 100 ng/ml; 24 hrs
Protocol: as §2

[8] = collagen; with literature reference 123; cited from earlier work

Row | Molecule | MMP expression [1] | IL-6 in LPS stimulated cultures [5] | MMP-1 in LPS stimulated cultures [7] | also measured
1 | N#CC(=C(/N)Sc1ccccc1N)/C(C#N)=C(\N)Sc1ccccc1N [U0126] | inhibit MMP expression | – | – | –
2 | COc1cccc(-c2cc(=O)c3ccccc3o2)c1N [PD98059] | inhibit MMP expression | significant inhibition | significant inhibition | AP-1 DNA-binding activity [2]: inhibitory effect; MMP-1 production by chondrocytes [3]: decreased MMP-1 production; Hydrophobicity [4]: hydrophobic; LPS-stimulated MMP-1 expression [6]: inhibitory effect
3 | Collagen | – | – | – | Isoelectric point [8]: 5.5
4 | C[S+]([O-])c1ccc(-c2nc(-c3ccncc3)c(-c3ccc(F)cc3)[nH]2)cc1 (centres unmarked) [SB203580] | – | significant inhibition | significant inhibition | –
